Laboratory results published in patent US7030089B2 (priority 2000, dated 2006).
Converted amounts (≈) assume the structure as drawn. “And” between values parts separate entries of the source, which are not always exact repeats. Equal values may be shown once. Read-outs that look alike come from different tables or passages of the source.

Assays:
[1] = system: L1210/L-PAM cells (melphalan resistant murine leukemia, high GSH); assay: cells; details: for IC50: Mus musculus, L1210/LPAM, 48 h, read-out: Cytotoxicity IC50; for Cytotoxicity on L1210/L-PAM cells in respect to L1210 cells: comparison of IC50 on the two cell lines
Description: The cytotoxic activity was determined on L1210 murine lymphocytic leukemia cell line and on the L-PAM resistant cell subline L1210/L-PAM. Cells were grown in vitro as stabilized suspension cultures.L1210 cells were maintained in RPMI 1640 medium containing β-mercaptoethanol (10 μM). L1210/L-PAM cells were maintained in RPMI 1640 medium containing β-mercaptoethanol (50 μM). All culture media (Biowhittaker, UK) were supplemented with 10% Fetal Calf Serum (Biological Industries, Israel) and 2 mM L-glutamine (Biowhittaker, UK).
The cytotoxic activity was determined against exponentially growing cells. L1210 and L1210/L-PAM cells were seeded in 24 well-plates at concentration of 50,000 cells/ml and immediately treated for 48 h with the drug.
The inhibition of cell growth was evaluated by counting surviving cells with a Coulter Counter. The antiproliferative activity of drugs was calculated from dose-response curves and expressed as IC50 (concentration inhibiting 50% cell growth in treated cultures relative to untreated controls). All the experiments were carried out twice.

[2] = system: L1210 murine lymphocytic leukemia cell line; assay: Cytotoxic activity (cell growth inhibition, counting surviving cells) on L1210; format: cell-based; details: Mus musculus, read-out: Cytotoxicity IC50
Description: The cytotoxic activity was determined against exponentially growing cells.
All the experiments were carried out twice.

[3] = system: A2780 human ovarian carcinoma cell line; assay: Cytotoxicity (growth inhibition) on A2780 cells with or without BSO pretreatment; format: cell-based
Description: (§1) Further evidence of the relevance of GSH levels for the cytotoxicity of the compounds of formula (I) has been obtained by determining the influence of prior treatment with BSO (L-S.R buthionine sulphoximine) on the susceptibility of A2780 human ovarian cells to their cytotoxic and apoptotic effect.
(§2) The cytotoxic activity was determined on A2780 human ovarian carcinoma cell line.
(§3) The cytotoxic activity was determined against exponentially growing cells. A2780 cells were seeded in 6 well-plates at concentration of 100,000 cells/ml for 2 ml and incubated for 24 h with the GSH inhibitor BSO and finally exposed to different concentrations of PNU 166196 (untreated cells were incubated with the medium only).
(§4) After 24 h treatment with the drug, cell growth inhibition was evaluated on the monolayer cells whereas the floating cells were used for morphology evaluation.

[4] = system: A2780 human ovarian carcinoma cell line; assay: Apoptotic effect (cells with apoptotic morphology, fluorescence microscopy) on A2780 cells with or without BSO pretreatment; format: cell-based
Description: as §1, §2, §3, §4
Apoptosis was evaluated by fluorescence microscopy. At the end of the treatment, floating cells were collected, washed in PBS, fixed in 70% ice-cold ethanol and stored at −20° C. until analysis (5 days max.). Cells were then centrifuged and the pellets were stained with 50 μg/ml propidium iodide, 0.001% Nonidet P40 and 60 U/ml Rnase and stored in the dark for 30 minutes at 37° C. Cells were centrifuged and the pellets were resuspended in […]. At least 600 cells randomly chosen from 2 smears independently prepared were examined for their nuclear morphology changes (chromatin condensation and DNA fragmentation) using a fluorescence microscope [see Int. J. Cancer 65:491–497 (1996)]. All the experiments were carried out twice. Results are reported per the enclosed table II and comments thereof.

[5] = L1210 cells (GSH 7.7 nmole/10^6 cells), 48 h incubation
[6] = A2780, BSO alone (dose printed MM)

## N[C@@H](Cc1ccc(N(CCCl)CCCl)cc1)C(=O)O [L-PAM, melphalan]
[1]
  IC50: 8.1 µg/mL (≈ 26.5 µM)
  Cytotoxicity on L1210/L-PAM cells in respect to L1210 cells: lower
[2]; L1210, 48 h
  IC50: 1.65 µg/mL (≈ 5.41 µM)

## C=C(Br)C(=O)Nc1cc(C(=O)Nc2cc(C(=O)Nc3cc(C(=O)Nc4cc(C(=O)NCCNC(=N)N)n(C)c4)n(C)c3)n(C)c2)n(C)c1.Cl [PNU 166196, N-(5-{[(5-{[(5-{[(2-{[amino(imino)methyl]amino}ethyl)amino]carbonyl}-1-methyl-1H-pyrrol-3-yl)amino]carbonyl}-1-methyl-1H-pyrrol-3-yl)amino]carbonyl}-1-methyl-1H-pyrrol-3-yl)-4-[(2-bromoacryloyl)amino]-1-methyl-1H-pyrrole-2-carboxamide hydrochloride]
[3]; A2780
  Cytotoxicity (percentage of growth inhibition) in BSO pretreated cells in respect to BSO-untreated ones: significantly decreased
[3]; Homo sapiens, A2780, A2780, 300 ng/ml, no BSO
  inhibition at 0.3 µg/mL: 43 ± 2.5%
[3]; Homo sapiens, A2780, A2780, 1000 ng/ml, no BSO
  inhibition at 1 µg/mL: 64.5 ± 14.5%
[3]; Homo sapiens, A2780, read-out: Growth inhibition %, A2780, 3000 ng/ml, BSO 0.1 mM 24 h before and during treatment
  inhibition at 3 µg/mL: 38%
[3]; Homo sapiens, A2780, read-out: Growth inhibition %, A2780, 3000 ng/ml, no BSO
  inhibition at 3 µg/mL: 77.5%
[1]
  IC50: 0.00049 µg/mL
[2]; [5]
  IC50: 0.00162 µg/mL
[4]; A2780
  Apoptotic effect (percentage of cells with apoptotic morphology) in BSO pretreated cells in respect to BSO-untreated ones: significantly decreased
[4]; A2780, 300 ng/ml, no BSO
  Apoptosis %: 17.5 ± 6.5%
[4]; A2780, 1000 ng/ml, no BSO
  Apoptosis %: 49.5 ± 15.5%
[4]; A2780, 3000 ng/ml, BSO 0.1 mM 24 h before and during treatment
  Apoptosis %: 11.5%
[4]; A2780, 3000 ng/ml, no BSO, hydrochloride
  Apoptosis %: 74.5% and 74.5 ± 15.5%

## Cn1cc(NC(=O)c2cc(NC(=O)c3cc(NC(=O)c4ccc(N(CCCl)CCCl)cc4)cn3C)cn2C)cc1C(=O)NCCC(=N)N [Tallimustine, 3-[1-methyl-4-[1-methyl-4-[1-methyl-4-[1-methyl-4-[N,N-bis(2-chloroethyl)amino]benzenecarboxamindo]pyrrole-2-carboxamido]pyrrole-2-carboxamido]pyrrole-2-carboxamido]propionamidine]
[1]
  IC50: 0.0274 µg/mL (≈ 0.0393 µM)
  Cytotoxicity on L1210/L-PAM cells in respect to L1210 cells: comparable
[2]; L1210, 48 h
  IC50: 0.0225 µg/mL (≈ 0.0323 µM)

## C=C(Br)C(=O)Nc1cc(C(=O)Nc2cc(C(=O)Nc3cc(C(=O)Nc4cc(C(=O)NCCC(=N)N)n(C)c4)n(C)c3)n(C)c2)n(C)c1.Cl [PNU 151807, N-(5-{[(5-{[(5-{[(3-amino-3-iminopropyl)amino]carbonyl}-1-methyl-1H-pyrrol-3-yl)amino]carbonyl}-1-methyl-1H-pyrrol-3-yl)amino]carbonyl}-1-methyl-1H-pyrrol-3-yl)-4-[(2-bromoacryloyl)amino]-1-methyl-1H-pyrrole-2-carboxamide hydrochloride]
[1]
  IC50: 0.00026 µg/mL
[2]; [5]
  IC50: 0.00086 µg/mL

## CCCCS(=N)(=O)CCC(N)C(=O)O [BSO, L-S.R buthionine sulphoximine, reference compound]
[3]; [6]
  Growth inhibition %: 2.5 ± 0.2%
[4]; [6]
  Apoptosis %: 0%
